Results from US6545127B1, “Catalytically active recombinant memapsin and methods of use thereof” (Oklahoma Medical Research Foundation, priority 1999, dated 2003).
One block for each compound: values may come before it. Non-standard residues stand in square brackets, D forms with d. Residues, ends and D or L forms follow the SMILES beside them. No end group written: not given here. *: point of attachment. Sta = CC(C)C[C@H](N)[C@@H](O)CC(=O)O; Isovaleryl = CC(C)CC(=O)*

What was measured:
M2pd [1] = target: T1, M2pd (Homo sapiens, UniProt P56817); assay: Steady-state kinetics of hydrolysis of peptide substrates by M2pd; format: biochemical; details: peptide substrate hydrolysed by M2pd, pH 4.0
T1 construct: 15 N-terminal residues from vector pET11a (T7 protein leader) (N, cleaved yes); made in house
T1 sequence (P56817 14-419 limits assumed): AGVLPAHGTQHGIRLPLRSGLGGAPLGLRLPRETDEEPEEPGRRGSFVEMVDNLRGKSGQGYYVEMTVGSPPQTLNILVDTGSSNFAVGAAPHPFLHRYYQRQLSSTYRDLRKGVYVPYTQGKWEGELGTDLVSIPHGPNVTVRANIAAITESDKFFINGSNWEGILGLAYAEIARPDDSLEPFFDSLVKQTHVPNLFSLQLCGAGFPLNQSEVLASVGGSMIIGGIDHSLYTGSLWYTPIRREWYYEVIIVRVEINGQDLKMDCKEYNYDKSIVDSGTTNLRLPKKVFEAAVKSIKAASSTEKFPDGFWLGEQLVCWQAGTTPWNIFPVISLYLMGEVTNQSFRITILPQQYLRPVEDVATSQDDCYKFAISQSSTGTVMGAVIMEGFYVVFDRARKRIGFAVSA
Description: Incubation in 0.1M sodium acetate, pH 4.0, for 16 h at 22° C. auto-catalytically converted pro-M2pd to M2pd . For initial hydrolysis tests, two synthetic peptides were separately incubated with pro-M2pd in 0.1M Na acetate, pH 4.0 for different periods ranging from 2 to 18 h. The incubated samples were subjected to LC/MS for the identification of the hydrolytic products. For kinetic studies, the identified HPLC (Beckman System Gold) product peaks were integrated for quantitation. The Km and kcat values for presenilin 1 and Swedish APP peptides (Table 1) were measured by steady-state kinetics. The individual Km and Kcat values for APP peptide could not be measured accurately by standard methods, so its kcat/Km value was measured by competitive hydrolysis of mixed substrates against presenilin 1 peptide (Fersht, A. “Enzyme Structure and Mechanism”, 2nd Ed., W. H. Freeman and Company, New York. (1985)).

M2pd [2] = target: T1, M2pd; assay: Inhibition of M2pd by pepstatin A; format: biochemical
[3] = test system: memapsin 2 (M2) cleavage of APP in HeLa cells; assay: APP beta-secretase site cleavage in HeLa cells co-transfected with APP and M2 (pulse-chase, immunoprecipitation, SDS-PAGE); format: cell-based, human; details: HeLa cells co-transfected with APP and M2, inhibitor included in the media
recombinant memapsin 2 [4] = target: T2, recombinant memapsin 2 (Homo sapiens, UniProt P56817); assay: Inhibition of recombinant memapsin 2, synthetic fluorogenic peptide substrate; format: biochemical; details: recombinant memapsin 2, synthetic fluorogenic peptide substrate (FIG. 4A/4B)
Target sequence in this assay (P56817 46-457 limits assumed): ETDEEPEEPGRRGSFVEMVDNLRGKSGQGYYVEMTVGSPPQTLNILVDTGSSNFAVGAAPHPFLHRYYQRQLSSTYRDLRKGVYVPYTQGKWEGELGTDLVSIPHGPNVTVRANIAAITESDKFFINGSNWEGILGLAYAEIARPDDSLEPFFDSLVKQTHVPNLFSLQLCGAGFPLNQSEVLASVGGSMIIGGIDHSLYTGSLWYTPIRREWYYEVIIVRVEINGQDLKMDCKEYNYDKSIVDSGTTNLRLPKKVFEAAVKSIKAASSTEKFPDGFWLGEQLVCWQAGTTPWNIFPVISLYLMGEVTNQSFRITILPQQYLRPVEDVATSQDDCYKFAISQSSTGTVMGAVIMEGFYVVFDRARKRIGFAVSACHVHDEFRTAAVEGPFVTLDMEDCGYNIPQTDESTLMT
Description: The substrate used was a synthetic fluorogenic peptide substrate.

recombinant memapsin 2 [5] = target: T2, recombinant memapsin 2; assay: Value; set-up: expressed in E. coli in two different lengths, both without the transmembrane region; 15 N-terminal residues from vector pET11a (T7 protein leader) (N); made in house; host or cells: E. coli BL21 (DE3)
Description: Table printed on a drawing sheet, FIG. 4A
Footnotes: [Mep2] = 0.47 µM / [Fluo. Substrate] = 29.9 µM / Buffer: Na Acetate 0.1 M, 5% DMSO, pH 4.5 at 37°C / Excitation at 350 nm / Emission at 490 nm
The patent's description of the figure: FIG. 4A is a graph of the inhibition of recombinant memapsin 2 by OM99-1.
First copying reader's note: Fit parameter (Ki) of the inhibition curve of memapsin 2 by OM99-1 plotted above the table; no unit is printed for Ki, and the plot's concentration axis is in M.
Where the first naming reader finds the target: description_of_the_figure: FIG. 4A is a graph of the inhibition of recombinant memapsin 2 by OM99-1.
Target sequence in this assay (P56817 46-457): as the sequence (P56817 46-457 limits assumed) above

Compound: SVNM/AEGD (SVNMAEGD) [presenilin 1, substrate peptide derived from the processing site of presenilin 1]
Km (M2pd [1]): 15.2 mM
kcat (M2pd [1]): 0.67 s⁻¹

Km (M2pd [1]): 1 mM
Compound: SEVNLDAEFR [Swedish APP peptide, SEVNL/DAEFR]

Compound: CC(C)CC(=O)N[C@H](C(=O)N[C@H](C(=O)N[C@@H](CC(C)C)[C@@H](O)CC(=O)N[C@@H](C)C(=O)N[C@@H](CC(C)C)[C@@H](O)CC(=O)O)C(C)C)C(C)C [Pepstatin A] (Isovaleryl-VV[Sta]A[Sta]-OH)
IC50 (M2pd [2]): ~300000 nM

Compound: CO/C1=C\C(C)=C\[C@@H](C)[C@@H](O)[C@@H](C)C/C(C)=C/C=C/[C@H](OC)[C@@H]([C@@H](C)[C@@H](O)[C@H](C)[C@@]2(O)C[C@@H](O)[C@H](C)[C@@H](C(C)C)O2)OC1=O [Bafilomycin A1]
production of APP beta N- and beta C-fragments [3]: abolished the production of both APP fragments

Compound: CC(C)C[C@H](NC(=O)[C@H](CC(N)=O)NC(=O)[C@@H](N)C(C)C)[C@@H](O)C[C@@H](C)C(=O)N[C@@H](C)C(=O)N[C@@H](CCC(=O)O)C(=O)N[C@@H](Cc1ccccc1)C(=O)O [OM99-1, Val-Asn-Leu*Ala-Ala-Glu-Phe] (HELM PEPTIDE1{V.N.[CC(C)C[C@H](N[*:1])[C@@H](O)C[C@@H](C)C(=O)[*:2]].A.E.F}$$$$V2.0)
Ki (recombinant memapsin 2 [4]): 30 nM
Ki (recombinant memapsin 2 [5]): 68.4 nM
